We go through 6 compounds from ChEMBL document CHEMBL3044984, “Synthesis of 2-(5, 7-Difluoro-3-indolyl)-propionic Acid (5, 7-F2-IPA) and 2-(5, 7-Difluoro-3-indolyl)isobutyric Acid (5, 7-F2-IIBA) and Their Respective Auxin and Antiauxin Activities” (2001).

For assay [1], the system named is Avena sativa. Put plainly: Antiauxin activity in Avena sativa cv. Victory-1 assessed as growth inhibition at 1 x 10^-4 M. The format is functional, organism-based.
Assay [2] deals with Avena sativa. Put plainly: Auxin activity in Avena sativa cv. Victory-1 assessed as increase of auxin-induced growth at 10^-5 M. It is filed as functional.
Assay [3] has as its system Avena sativa. Put plainly: Auxin activity in Avena sativa cv. Victory-1 assessed as coleoptile elongation at 3 x 10^-6 M. The format is functional, organism-based.
Assay [4] has as its system Avena sativa. Briefly: Auxin activity in Avena sativa cv. Victory-1 assessed as coleoptile elongation. The format is functional, organism-based.
The test system of assay [5] is Avena sativa. Briefly: Antiauxin activity in Avena sativa cv. Victory-1 assessed as auxin-induced growth inhibition at 10^-5 to 10^-4 M. It is filed as functional, organism-based.
The subject of assay [6] is Avena sativa. Put plainly: Antiauxin activity in Avena sativa cv. Victory-1 assessed as growth inhibition. It is filed as functional, organism-based.
Assay [7] concerns Avena sativa. Briefly: Auxin activity in Avena sativa cv. Victory-1 assessed as increase of auxin-induced growth at 5.6 x 10^-5 M. The format is functional, organism-based.
The test system of assay [8] is Avena sativa. Briefly: Antiauxin activity in Avena sativa cv. Victory-1 assessed as auxin-induced growth inhibition at 3 x 10^-5 M. It is filed as functional, organism-based.

Calls of active or inactive are those of the source. The rule behind the calls is not given here.

`CC(C)(C(=O)O)c1c[nH]c2c(F)cc(F)cc12`: the “growth inhibition (GI)” value in assay [1] and in assay [5] was “Active” in each case. Also, the Activity in assay [2] was determined as 80%. The outcome in assay [3] and in assay [4] was Active.
As for `O=C(O)Cc1c[nH]c2c(F)cc(F)cc12`, the “growth inhibition (GI)” value in assay [6] was “Active”.
The same measure, in the same setting: under `CC(C)(C(=O)O)c1c[nH]c2ccccc12` stands “inactive”.
`O=C(O)Cc1c[nH]c2ccccc12`: the result in assay [7] was inactive. Also, in assay [4], the outcome was Active. The “growth inhibition (GI)” value in assay [8] is “Active”.
Take `CC(C)(C(=O)O)c1c[nH]c2c(Cl)cc(Cl)cc12`: in assay [4], the outcome was inactive.
On to `CC(C(=O)O)c1c[nH]c2c(F)cc(F)cc12` (centres undefined), for which, in assay [1], the “growth inhibition (GI)” value was “Active”. In addition, the result in assay [3] and in assay [4] was Active.
